Article PMC9481570, “A small molecule antagonist of SMN disrupts the interaction between SMN and RNAP II” (Nature Communications, 2022)

System: GEMIN2
Assay: AP-MS chemical proteomics, GEMIN2
Assay type: binding, human
Experimental: The samples for AP-MS were prepared following pulldown procedure as previously described with minor modifications. Briefly, U2OS cells were lysed in RIPA buffer and the cell lysate was equally divided into two groups: (1) DMSO group (control group): the cell lysate was incubated with 20 μM biotin-labeled compound 1; (2) Cpmd 1 group (sample group): the cell lysate was incubated with 20 μM biotin-labeled compound 1 and 200 μM free compound 1. Each group contains three biological replicates. They were incubated overnight at 4 °C, then 30 μL streptavidin beads (Thermo Fisher, 20353) was added and incubated at 4 °C for 1 h. The beads were then washed with RIPA buffer for 3 times, 10 min/time. […]
Samples were analyzed by nanoLC-MS/MS (nanoRSLC, Thermo Fisher) using an Aurora series (Ion Opticks) reversed phase HPLC column (25 cm length × 75 µm inner diameter) and directly injected to an Orbitrap Eclipse (Thermo Fisher) using a 120 min gradient (mobile phase A = 0.1% formic acid, mobile phase B = 99.9% acetonitrile with 0.1% formic acid; hold 2% B for 5 min, 2–6% B in 0.1 min, 6–25% in 100 min, 25–50% in 15 min) at a flow rate of 350 nL/min. Eluted peptide ions were analyzed using a data-dependent acquisition (DDA) method with resolution settings of 120,000 and 15,000 (at m/z 200) for MS1 and MS2 scans, respectively. […]

With Cn1c2c(c(=N)c3c1CCC3)CCC2 [Compound 1, 4-methyl-2,3,4,5,6,7-hexahydrodicyclopenta[b,e]pyridin-8(1H)-imine] the Difference (GN=GEMIN2 (O14893), Cmpd minus DMSO, -LOG(P-value) 2.68522) was -5.244 and the “log2 FC (Cmpd 1/DMSO), GEMIN2” value (biotin-Cmpd 1 pulldown, competition with 200 μM compound 1 relative to DMSO, U2OS lysate) was −5.2.
